How the values were obtained:
EGFR (human) = EGFR (human) (UniProt P00533); conditions: a431
EGFR = EGFR (UniProt P00533); conditions: concentration not given here
Sequence of EGFR (P00533 whole entry, looked up): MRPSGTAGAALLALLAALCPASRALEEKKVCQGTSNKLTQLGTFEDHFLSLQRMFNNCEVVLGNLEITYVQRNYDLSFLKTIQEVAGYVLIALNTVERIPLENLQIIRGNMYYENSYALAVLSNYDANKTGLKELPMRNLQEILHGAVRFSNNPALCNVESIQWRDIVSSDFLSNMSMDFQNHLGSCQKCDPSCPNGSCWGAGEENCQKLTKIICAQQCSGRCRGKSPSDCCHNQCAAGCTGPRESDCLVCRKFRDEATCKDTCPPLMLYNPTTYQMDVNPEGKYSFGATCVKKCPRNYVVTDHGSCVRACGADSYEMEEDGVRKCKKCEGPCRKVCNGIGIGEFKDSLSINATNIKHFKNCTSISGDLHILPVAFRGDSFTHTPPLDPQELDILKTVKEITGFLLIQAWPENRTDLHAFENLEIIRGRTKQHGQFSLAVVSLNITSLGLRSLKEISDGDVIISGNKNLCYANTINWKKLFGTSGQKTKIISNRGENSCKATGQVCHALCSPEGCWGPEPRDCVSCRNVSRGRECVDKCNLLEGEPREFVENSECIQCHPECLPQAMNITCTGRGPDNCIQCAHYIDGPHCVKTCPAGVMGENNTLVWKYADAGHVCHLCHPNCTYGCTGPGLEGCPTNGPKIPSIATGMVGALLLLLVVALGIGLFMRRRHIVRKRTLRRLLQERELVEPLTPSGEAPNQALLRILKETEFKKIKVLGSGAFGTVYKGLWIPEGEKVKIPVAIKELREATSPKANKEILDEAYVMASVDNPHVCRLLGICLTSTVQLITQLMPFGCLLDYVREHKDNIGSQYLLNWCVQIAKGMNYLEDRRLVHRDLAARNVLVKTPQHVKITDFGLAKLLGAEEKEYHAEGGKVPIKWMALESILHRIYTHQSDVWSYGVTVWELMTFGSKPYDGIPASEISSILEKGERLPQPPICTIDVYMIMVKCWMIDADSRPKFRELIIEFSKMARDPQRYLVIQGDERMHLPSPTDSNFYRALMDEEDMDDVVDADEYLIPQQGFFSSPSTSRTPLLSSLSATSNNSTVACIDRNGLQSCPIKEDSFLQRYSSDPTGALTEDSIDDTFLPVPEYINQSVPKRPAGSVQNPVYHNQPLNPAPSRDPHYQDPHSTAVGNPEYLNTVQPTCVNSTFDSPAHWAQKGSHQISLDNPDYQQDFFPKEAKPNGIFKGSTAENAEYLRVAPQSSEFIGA

Sequence of EGFR (human) (P00533 whole entry, looked up): as above

| Compound | IC50 (EGFR (human)) [µM] | inhibition (EGFR) [%] |
| --- | --- | --- |
| COc1cc(N)c(C(=O)NC(C)c2ccccc2)cc1OC (stereo unspecified) | > 1000 | – |
| COc1cc(N)c(C(=N)Nc2cccc(Br)c2)cc1OC | 300 | – |
| COc1cc(N)c(C(=O)Nc2cccnc2)cc1OC | > 1000 | – |
| COc1cc(N)c(C(=N)Nc2ccc(F)c(Cl)c2)cc1OC | 200 | < 50 |
| COc1cc2c(cc1OC)C(Nc1cccc(Br)c1)=NC(C)(C)N2 | 130 | – |
| COc1cc(N)c(C(=O)NC2CCCCC2)cc1OC | > 1000 | – |
| COc1cc(N)c(C(=O)Nc2ccccn2)cc1OC | > 1000 | – |
| COc1cc(N)c(C(=O)Nc2ccncc2)cc1OC | > 1000 | – |
| COc1cc(N)c(C(=O)Nc2cccc(C(F)(F)F)c2)cc1OC | 470 | – |
| COc1cc(N)c(C(=O)Nc2cccc(Br)c2)c(OC)c1OC | 920 | < 50 |
| COc1cccc(NC(=O)c2cc(OC)c(OC)cc2N)c1 | 200 | – |
| COc1cc(N)c(C(=O)Nc2ccc(F)c(Cl)c2)cc1OC | > 1000 | – |

Results, then the compound that gave them:

| IC50 (EGFR (human)) [µM] | inhibition (EGFR) [%] | Compound |
| --- | --- | --- |
| 90 | – | COc1cc2c(cc1OC)C(Nc1ccc(F)c(Cl)c1)=NC(C)(C)N2 |
| 460 | – | COc1cc(N)c(C(=N)Nc2cccc(Cl)c2)cc1OC |
| 200 | – | COc1cc2c(cc1OC)C(Nc1cccc(Cl)c1)=NC(C)(C)N2 |
| 340 | – | COc1cccc(NC(=N)c2cc(OC)c(OC)cc2N)c1 |
| 340 | – | COc1cc(N)c(C(=O)Nc2cccc(Br)c2)cc1OC |
| 320 | – | COc1cccc(NC2=NC(C)(C)Nc3cc(OC)c(OC)cc32)c1 |
| – | 10 | COc1cc2ncnc(Nc3cccc(Cl)c3)c2cc1OC |
